Reference: patent US9714213B2, “4-aminomethylbenzoic acid derivative” (TOA EIYO LTD., priority 2013, dated 2017)
Like-named read-outs stand apart in the source and are kept apart here.

Assays:
rat ventral aorta = assay: Blood vessel relaxation activity, phenylephrine-contracted rat ventral aorta ring specimen; details: relaxation of 1 μmol/L phenylephrine contraction; EC50 without ODQ / EC50 with 10 μmol/L ODQ
Description: A representative compound of the present invention was assayed for blood vessel relaxation activity according to the Test Example described below. In the assay, a rat (male, SD) was phlebotomized from the upper part of the heart under pentobarbital (30 mg/kg) anesthesia, and the ventral aorta was extracted. The connective tissue adhering around the blood vessel in the ventral aorta was removed in an ice-cooled Krebs-Henseleit solution (KH solution) (118 mmol/L sodium chloride, 4.7 mmol/L potassium chloride, 1.2 mmol/L magnesium sulfate, 1.2 mmol/L potassium dihydrogenphosphate, 25 mmol/L sodium hydrogen carbonate, 2.5 mmol/L calcium chloride and 10 mmol/L glucose, pH 7.4). Then, a ring specimen of 2 mm length was prepared, and fixed in 5 mL organ bath filled with the KH solution. The KH solution was maintained at 37° C., and a mixed gas of 95% O2 and 5% CO2 was ventilated. The specimen was stabilized with 1 g of the resting tension for 1 hour. In the meantime, the KH solution was exchanged twice. The tension of the specimen was recorded with a multichannel recorder through a pickup and an amplifier. After stabilization of the specimen, contraction was induced with 1 μmol/L phenylephrine (Phe), and cumulative administration of each compound (0.001, 0.01, 0.03, 0.1, 0.3, 1, 3, 10, 30, 100, 1000, 10000 nmol/L) was carried out. In the case of evaluation at the time of containing ODQ, 10 μmol/L ODQ was added 10 minutes before administration of Phe, and similar evaluation was performed.
EC50 value was calculated by Four-parameter Logistic Model with Assay Explorer (Accelrys, Inc.). Meanwhile, the solution of the test compound was prepared by dissolving the compound in DMSO to prepare solutions having the concentration of each test compound 1000 times higher than the final concentration.

human sGC = biological target: T1, human sGC (Homo sapiens, UniProt Q02153); assay: Maximum effect of sGC activation (intracellular Ca2+, Fura2-AM) in CHO-K1 cells stably expressing human sGC and mouse CNGA2; type: cell-based; details: increase rate of sGC activity vs DMSO control, test compound 10 μmol/L
T1 construct: expressed in transfected cells; host or cells: CHO-K1 (Chinese hamster ovary) cells
T1 sequence (Q02153 1-619): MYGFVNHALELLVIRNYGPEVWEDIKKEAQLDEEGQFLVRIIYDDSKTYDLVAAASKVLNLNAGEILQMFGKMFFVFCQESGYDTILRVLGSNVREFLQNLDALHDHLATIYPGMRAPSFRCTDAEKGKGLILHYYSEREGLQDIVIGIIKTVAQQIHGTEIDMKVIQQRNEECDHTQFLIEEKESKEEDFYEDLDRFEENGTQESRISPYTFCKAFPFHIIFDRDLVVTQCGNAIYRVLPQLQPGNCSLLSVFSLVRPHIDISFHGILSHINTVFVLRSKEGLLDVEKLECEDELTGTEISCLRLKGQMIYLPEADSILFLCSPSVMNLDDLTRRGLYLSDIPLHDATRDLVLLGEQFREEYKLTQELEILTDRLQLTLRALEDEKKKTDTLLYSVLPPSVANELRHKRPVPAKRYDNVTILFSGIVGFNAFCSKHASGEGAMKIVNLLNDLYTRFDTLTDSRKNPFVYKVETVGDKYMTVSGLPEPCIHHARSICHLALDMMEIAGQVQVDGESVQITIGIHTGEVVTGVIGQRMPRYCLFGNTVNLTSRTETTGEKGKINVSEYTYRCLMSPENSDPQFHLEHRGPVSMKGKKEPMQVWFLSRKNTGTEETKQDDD
T1 sequence (Q02108 1-690 partner): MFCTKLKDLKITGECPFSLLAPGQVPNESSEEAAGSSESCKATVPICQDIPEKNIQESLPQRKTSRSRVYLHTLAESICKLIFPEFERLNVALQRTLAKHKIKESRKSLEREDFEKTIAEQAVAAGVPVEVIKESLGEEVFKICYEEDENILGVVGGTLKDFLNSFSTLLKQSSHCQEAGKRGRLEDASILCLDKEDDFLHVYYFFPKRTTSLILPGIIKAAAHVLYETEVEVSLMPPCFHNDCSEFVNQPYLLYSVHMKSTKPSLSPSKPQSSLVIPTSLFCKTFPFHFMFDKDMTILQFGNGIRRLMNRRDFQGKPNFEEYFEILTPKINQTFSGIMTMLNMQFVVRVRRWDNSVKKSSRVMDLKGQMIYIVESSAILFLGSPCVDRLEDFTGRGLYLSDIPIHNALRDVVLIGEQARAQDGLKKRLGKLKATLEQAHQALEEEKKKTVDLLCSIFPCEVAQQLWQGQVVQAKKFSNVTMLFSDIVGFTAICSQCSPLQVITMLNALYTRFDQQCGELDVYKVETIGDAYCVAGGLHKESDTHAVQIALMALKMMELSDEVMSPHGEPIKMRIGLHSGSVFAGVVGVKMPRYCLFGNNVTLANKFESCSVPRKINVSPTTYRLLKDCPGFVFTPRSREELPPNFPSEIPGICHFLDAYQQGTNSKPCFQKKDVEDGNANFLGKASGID
Description: For the assay, chinese hamster ovary cells (CHO-K1 cells) stably expressing both α and β subunits of human sGC and mouse cyclic nucleotide-gated channel (CNGA2) were used.
The CHO-K1 cells stably expressing human sGC and mouse CNGA2 was cultured at 37° C. on F-12 medium containing 10% (v/v) fetal bovine serum (FBS), penicillin (100 U/mL), streptomycin (100 μg/mL), G418 (250 μg/mL) and Zeocin (250 μg/mL). The cells were suspended in a culture medium, seeded on a 96 well plate, and then cultured at 37° C. for 24 hours. The cells were washed with Assay buffer 1 (140 mmol/L sodium chloride, 5 mmol/L potassium chloride, 0.5 mmol/L magnesium chloride, 0.01 mmol/L calcium chloride, 10 mmol/L glucose, 0.4 mmol/L magnesium sulfate, 10 mmol/L 4-(2-hydroxyethyl)piperazin-1-ylethanesulfonic acid and 125 μmol/L sulfinpyrazone, pH 7.4), and then added a solution containing Fura2-AM, a fluorescent Ca^2+ indicator, in Assay buffer 1 at […] concentration thereto as an indicator solution, and cultured at 37° C. for 60 minutes. The culture medium was removed, and the cells were washed with Assay buffer 1, and then added a solution containing the test compound thereto, and cultured at room temperature for 10 minutes. A plate was placed onto a fluorometer (FlexStation II, Molecular Devices), and the intracellular calcium concentration was determined as the ratio of fluorescent intensity, obtained from measurement using 340 nm and 380 nm as excitation wavelength and 510 nm as detection wavelength.
The solution of the test compound was prepared by dissolving each test compound in DMSO at 10 mmol/L, and then diluting the solution for the test concentration at 10 μmol/L with Assay buffer (140 mmol/L sodium chloride, 5 mmol/L potassium chloride, 0.5 mmol/L magnesium chloride, 1 mmol/L calcium chloride, 10 mmol/L glucose, 0.4 mmol/L magnesium sulfate, 10 mmol/L 4-(2-hydroxyethyl)piperazin-1-ylethanesulfonic acid, […] sulfinpyrazone, 100 μmol/L isobutyl methyl xanthine, and 10 μmol/L 1H-[1,2,4]-oxadiazol[4,3-a]quinoxaline-1-one (hereinafter, ODQ), pH 7.4). The evaluation in the absence of ODQ was performed similarly, except that ODQ was not added to Assay buffer 2. As a control solution, a DMSO solution was used instead of the test compound solution.
The activity of the test compound defined as the increase rate of the sGC activity (%) at the time of adding the solution of the test compound with respect to the sGC activity at the time of adding the control solution, was calculated by dividing the fluorescent intensity ratio at the time of adding the test compound by the fluorescent intensity ratio of the control solution, and subtracting the sGC activity at the time of adding the control solution (100%).
If sGC is activated in this assay, intracellular cGMP concentration increases and accordingly intracellular Ca^2+ concentration is increased by opening of CNGA2. Accordingly, sGC activation can be measured as the change of Ca^2+ concentration in the cell. […] Accordingly, it is possible to evaluate maximum sGC activation effect including heme-dependent activation in the absence of ODQ, and also possible to evaluate heme independent sGC activation effect in the presence of ODQ.

[1] = 10 μmol/L ODQ present, read-out: Emax (%) ODQ+ (Heme-independent)
[2] = absence of ODQ, read-out: Emax (%) ODQ− (Heme-dependent)

Structure (SMILES)	EC50 Ratio (ODQ−/ODQ+) (rat ventral aorta)	Emax at 10 µM (human sGC; [1])	Emax at 10 µM (human sGC; [2])
Cc1ccc(C(CN(CCCCC(=O)O)Cc2ccc(C(=O)O)c(F)c2)OCc2ccc(CCc3ccccc3)cc2)s1 (stereo not drawn) [Example 28, 4-{[N-(4-Carboxybutyl)-N-[2-[4-(2-phenylethyl)benzyloxy]-2-(5-methyl-2-thienyl)ethyl]amino]methyl}-2-fluorobenzoic acid]	2.99	114%	98%
O=C(O)CCCCN(Cc1ccc(C(=O)O)cc1)CC(OCc1ccc(CCc2ccccc2)cc1)c1ccc(Cl)s1 (stereo not drawn) [Example 27, 4-{[N-(4-Carboxybutyl)-N-[2-[4-(2-phenylethyl)benzyloxy]-2-(5-chloro-2-thienyl)ethyl]amino]methyl}benzoic acid]	2.66	118%	187%
CC(C)(CCCN(Cc1ccc(C(=O)O)cc1)CC(OCc1ccc(CCc2ccccc2)cc1)c1ccccc1)C(=O)O (stereo not drawn) [Example 16, 4-{[N-(4-Carboxy-4-methylpentyl)-N-[2-[4-(2-phenylethyl)benzyloxy]-2-phenylethyl]amino]methyl}benzoic acid]	8.31	132%	92.4%
O=C(O)CCCCN(Cc1ccc(C(=O)O)cc1)C[C@H](OCc1ccc(CCc2ccccc2)cc1)c1cccc(Cl)c1 [Example 29, (−)-4-{[N-(4-Carboxybutyl)-N-[(2R)-2-(3-chlorophenyl)-2-[4-(2-phenylethyl)benzyloxy]ethyl]amino]methyl}benzoic acid]	9.66	110%	98.2%
O=C(O)CCCCN(Cc1ccc(C(=O)O)cc1)CC(OCc1ccc(CCc2ccccc2)cc1)c1ccccc1 (stereo not drawn) [Example 2, 4-{[N-(4-Carboxybutyl)-N-[2-[4-(2-phenylethyl)benzyloxy]-2-phenylethyl]amino]methyl}benzoic acid]	3.26	102%	130%
O=C(O)CCCCN(Cc1ccc(C(=O)O)cc1)C[C@H](OCc1ccc(CCc2ccccc2)cc1F)c1ccccc1 [Example 45, (−)-4-{[N-(4-Carboxybutyl)-N-[(2R)-2-[2-fluoro-4-(2-phenylethyl)benzyloxy]-2-phenylethyl]amino]methyl}benzoic acid]	4.26	123%	109%
O=C(O)CCCCN(Cc1ccc(C(=O)O)cc1)CC(OCc1ccc(CCc2ccccc2)cc1)c1cccs1 (stereo not drawn) [Example 19]	6.20	122%	114%
O=C(O)CCCCN(Cc1ccc(C(=O)O)cc1)CC(OCc1ccc(CCc2ccccc2)cc1)c1ccsc1 (stereo not drawn) [Example 26, 4-{[N-(4-Carboxybutyl)-N-[2-[4-(2-phenylethyl)benzyloxy]-2-(3-thienyl)ethyl]amino]methyl}benzoic acid]	7.72	110%	92.6%
O=C(O)CCCCN(Cc1ccc(C(=O)O)cc1)C[C@H](OCc1ccc(Oc2ccc(Cl)cc2)cc1)c1ccccc1 [Example 42, (−)-4-{[N-(4-Carboxybutyl)-N-[(2R)-2-[4-(4-chlorophenyloxy)benzyloxy]-2-phenylethyl]amino]methyl}benzoic acid]	8.40	127%	143%
Cc1cccc(C(CN(CCCCC(=O)O)Cc2ccc(C(=O)O)cc2)OCc2ccc(CCc3ccccc3)cc2)c1 (stereo not drawn) [Example 23, 4-{[N-(4-Carboxybutyl)-N-[2-(3-methylphenyl)-2-[4-(2-phenylethyl)benzyloxy]ethyl]amino]methyl}benzoic acid]	6.88	113%	132%
O=C(O)CCCCN(Cc1ccc(C(=O)O)cc1)CC(OCc1ccc(CCc2ccccc2)s1)c1ccccc1 (stereo not drawn) [Example 25, 4-{[N-(4-Carboxybutyl)-N-[2-[5-(2-phenylethyl)thiophen-2-ylmethoxy]-2-phenylethyl]amino]methyl}benzoic acid]	2.61	114%	130%
